Like-named read-outs stand apart in the source and are kept apart here.
Tests used:
Type in all cases: cell-based, human
[1] = tested on: T98G cells; assay: MTT cell viability assay in T98G glioblastoma cells; details: for IC50: Homo sapiens; for IC50 / percentage of cell viability: T98G cells, MTT; for percentage of cell viability: 40 or 80 μM; for anti-glioblastoma activity (in words): T98G cultures
Procedure: (§1) T98G cells were isolated from the brain of a glioblastoma multiforme patient (ATCC, cat. No. CRl-1690, RRUD: CVCL-0556, Manassas, VA, USA). HEK 293 cells are derived from human embryonic kidney cells (ATCC Cat# CRL-1573, RRID: CVCL_0045). Both cell lines were grown in Dulbecco’s modified Eagle’s medium (DMEM, Invitrogen) supplemented with 10% fetal serum bovine serum (FBS) at 37 °C according to reference.
(§2) 3 × 10^3 cells were seeded in a 96-well plate and were allowed to attach overnight at 37 °C. T98G cells were treated in duplicate or triplicate with different concentrations of the crude/chemically modified extract or pure compounds. The stock solutions were dissolved in DMSO at the final concentration of 160 mg/ml and 5 or 80 mM for the crude/chemically modified extracts and pure compounds, respectively. After 24 h, 100 μL of DMEM supplemented with 10% of FBS and 10% of 3-(4,5-dimethylthiazol-2-yl)-2,5-diphenyltetrazolium bromide (MTT) reagent (5 mg/mL; Sigma) were added to each well, and plates were further incubated for 2 h at 37 °C as described in references,[36]. Then, 100 μL of DMSO:isopropanol (1:1, v/v) were added to each well followed by incubation for a few minutes at room temperature protected from light. Absorbance was analyzed at 570 nm with a reference at 650 nm in an Epoch Microplate Spectrophotometer. Cells incubated with an equivalent DMSO concentration were considered 100% of viability. The equation “log(inhibitor) vs response—variable slope (four parameters) of the GraphPad Prism software was used to calculate the IC50 (half maximal inhibitory concentration) value.
To evaluate the standard treatment, T98G cultures were treated with temozolomide (5 to 1400 μM). After 72 h, the MTT assay was used to determined cell viability and the IC50 value was calculated as describe above.

[2] = tested on: HEK 293 cells; assay: MTT cell viability assay in non-tumor HEK 293 cells; details: for selectivity index: HEK 293 versus T98G
Procedure: as §1, §2

[3] = tested on: T98G cells; assay: Temporal susceptibility: MTT viability of dexamethasone-synchronized T98G cells; details: for viability at 13.6 µM: Homo sapiens, 24 h, read-out: cell viability
Procedure: T98G cells were seeded at the density of 3 × 10^3 in a 96-well plate and incubated overnight at 37 °C. Cultured cells were synchronized with dexamethasone (100 nM, 1 h at 37 °C) according to reference and then treated with (3) (13.6 μM) or DMSO at different times post-synchronization for 24 h. After incubation, cell viability was measured by MTT assay as described above. Cells incubated with DMSO were considered as 100% of viability.

[4] = pure compounds, 24 h, read-out: IC50

C=C1C(=O)O[C@@H]2[C@H]1CC[C@H](C)[C@]1(CCC(=O)O1)[C@@]2(C)O [PsiA, psilostachyin A]
IC50 [1, 4]: 17.4 µM | selectivity index [2]: Only 3 showed a good selectivity index

C=C1C(=O)OC2C1CCC(C)=C1CCC(=O)OC12C (stereo not shown) [PsiB, psilostachyin B]
IC50 [1, 4]: 13.9 µM

C=C1C(=O)OC2C1CCC(C)C1CCC(=O)OC12C (stereo not shown) [PsiC, psilostachyin C]
IC50 [1, 4]: 14.2 µM

Cn1nnc2c(C(N)=O)ncn2c1=O [Temozolomide, reference compound]
IC50 ([1]; standard treatment, 72 h, read-out: IC50): 844 µM

CC1=C(/C=C/C(=O)O)[C@]2(C)CC[C@@H](C=C2C(=O)O)C1 [compound 1, (1R,5S)-4-((E)-2-carboxyvinyl)-3,5-dimethylbicyclo[3.2.2]nona-3,6-diene-6-carboxylic acid]
percentage of cell viability ([1]; 24 h): higher than 50% | anti-glioblastoma activity (in words) [1]: weak anti-glioblastoma activity

COC(=O)/C=C/C1=C(C)C[C@@H]2C=C(C(=O)OC)[C@@]1(C)CC2 [compound 2, Methyl (1R,5S)-4-((E)-3-methoxy-3-oxoprop-1-en-1-yl)-3,5-dimethylbicyclo[3.2.2]nona-3,6-diene-6-carboxylate]
percentage of cell viability ([1]; 24 h): higher than 50% | anti-glioblastoma activity (in words) [1]: weak anti-glioblastoma activity

C=C1C(=O)O[C@H]2C(=C)[C@@]3(CCC(=O)O3)[C@@H](C)CC[C@@H]12 [compound 3, (3aS,6S,7R,8aR)-6-methyl-3,8-dimethyleneoctahydro-5'H-spiro[cyclohepta[b]furan-7,2'-furan]-2,5'(3H)-dione]
IC50 [1, 4]: 13.6 µM | anti-glioblastoma activity (in words) [1]: most active derivative of the series | viability at 13.6 µM ([3]; T98G cells treated at 18 and 24 h post synchronization): 45 to 50% | viability at 13.6 µM ([3]; non-synchronized T98G cells): ~75% | effect of time post synchronization on cell viability ([3]; T98G cells, Kruskal Wallis test): significant effect of time on cell viability | selectivity index [2]: good selectivity index | IC50 ([2]; Homo sapiens, HEK293, 24 h, HEK 293 cells, 24 h, MTT): ~39 µM

C=C1C(=O)O[C@H]2C(=C)[C@]3(CCC(=O)O3)[C@@H](C)CC[C@@H]12 [compound 4, (3aS,6S,7S,8aR)-6-methyl-3,8-dimethyleneoctahydro-5'H-spiro[cyclohepta[b]furan-7,2'-furan]-2,5'(3H)-dione]
IC50 ([1]; 24 h, 10 to 160 µg/mL tested, read-out: concentration needed to reduce 50% of cell viability): > 40 µg/mL | anti-glioblastoma activity (in words) [1]: less active

C=C1C(=O)OC2C(=C)C(CCC(=O)OC)C(C)CCC12 (stereo not shown) [compound 5]
percentage of cell viability ([1]; 24 h): higher than 50% | anti-glioblastoma activity (in words) [1]: weak anti-glioblastoma activity

Methyl 3-((3aS,6S,7S,8aR)-6-methyl-3,8-dimethylene-2-oxooctahydro-2H-cyclohepta[b]furan-7-yl)propanoate [compound 11]
percentage of cell viability ([1]; 24 h): higher than 50% | anti-glioblastoma activity (in words) [1]: weak anti-glioblastoma activity

Source: PMC11190268, “Enhancing structural diversity through chemical engineering of Ambrosia tenuifolia extract for novel anti-glioblastoma compounds” (Scientific Reports, 2024)
